From patent US8202871B2, “Indol-2-one derivatives disubstituted in the 3-position, preparation thereof and therapeutic use thereof” (Sanofi-Aventis, priority 2007, dated 2012)

Experiments:
ghrelin receptor = molecular target: T1, ghrelin receptor (Rattus norvegicus, UniProt O08725); assay: Antagonism of ghrelin on electric-field-stimulated contractions of isolated rat gastric fundus strips (headed 'In Vivo Test'); details: ghrelin 0.1 nM-1 μM concentration-response curves with and without antagonist, contact time 30 minutes, read-out: antagonist activity towards the ghrelin receptor, IC50
T1 construct: Strips of approximately 1 cm (5 mm wide) of gastric fundus were cut out along the longitudinal axis; from tissue; host or cells: rat gastric fundus strips
T1 sequence (O08725 whole entry): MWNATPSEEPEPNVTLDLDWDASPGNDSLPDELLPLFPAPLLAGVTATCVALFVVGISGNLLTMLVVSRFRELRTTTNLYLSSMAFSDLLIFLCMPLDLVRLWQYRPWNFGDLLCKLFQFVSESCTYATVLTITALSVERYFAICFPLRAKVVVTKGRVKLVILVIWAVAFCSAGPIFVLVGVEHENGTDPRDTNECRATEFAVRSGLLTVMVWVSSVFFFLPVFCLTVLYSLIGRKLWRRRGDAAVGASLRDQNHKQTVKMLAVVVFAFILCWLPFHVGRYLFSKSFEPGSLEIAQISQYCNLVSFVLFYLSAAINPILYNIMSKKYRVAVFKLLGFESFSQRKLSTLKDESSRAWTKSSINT
Description: The compounds according to the invention underwent in vivo studies.
Male Crl CD BR rats (Charles River, Italy) weighing 150-175 g were housed in a chamber at regulated temperature (22±1° C.) and humidity (55±10%) and with a 12-hour lightness-darkness cycle, for at least 7 days before their use. Feed and water were available ad libitum. The feed was removed 18 hours before sacrificing the animals. The rats were sacrificed by cervical dislocation, and the stomach was removed surgically, opened along the shorter curvature and placed in a Krebs solution (of composition (mM): 118.4 NaCl; 4.7 KCl; 2.5 CaCl2; 3.7 NaH2PO4; 1.2 MgSO4; 25 NaHCO3; 5.6 glucose). The animals were cared for and sacrificed according to the Sanofi-Aventis international code of ethics and the international principles governing the care and treatment of laboratory animals (EEC Directive 86/609, DJL358, 1, 12 Dec. 1987). […] The contractions were recorded by computer with a data recording and analysis system (Power Lab, Chart 5) connected to isotonic transducers (Ugo Basile, Varese, Italy) via preamplifiers (Octal Bridge Amp). […] The pKb values for the antagonists were calculated according to the Cheng-Prusoff equation (Kenakin et al., Competitive Antagonism, Pharmacologic Analysis of Drug-Receptor Interaction, 3rd edition, 331-373, Philadelphia, New York; Raven: Lippincott, 1997).

| IC50 (ghrelin receptor) [nM] | melting point [°C] | Structure (SMILES) |
| --- | --- | --- |
| 50 | 207.1 to 207.6 | CN1CCN(CC(=O)NC2(c3ccc(Cl)cc3)C(=O)Nc3cc(Cl)c(Cl)cc32)CC1 (single isomer, unassigned; (+)) [Compound 1, (+)-N-[5,6-Dichloro-3-(4-chlorophenyl)-2-oxo-2,3-dihydro-1H-indol-3-yl]-2-(4-methylpiperazin-1-yl)acetamide] |
| 1 | 158 to 162 | CCN1CCC(CC(=O)NC2(c3ccc(C(F)(F)F)cc3)C(=O)Nc3cc(Cl)cc(Cl)c32)CC1 (single isomer, unassigned; (+)) [Compound 2, (+)-N-[4,6-Dichloro-3-(4-trifluoromethylphenyl)-2-oxo-2,3-dihydro-1H-indol-3-yl]-2-(1-ethylpiperid-4-yl)acetamide] |
